The values below are quoted from earlier work in patent US20080234352A1, “Controlled release solid dispersions” (EGALET A/S, priority 2001, published 2008).

Like-named read-outs stand apart in the source and are kept apart here.

A word on the pKa: it is the pH at which an ionisable group is half protonated.

Experiment in data set [1]: not given
This is another data set of the same source.

Turning to `O=S(=O)(O)CCCN1CCN(CCO)CC1` [EPPS, 4-(2-Hydroxyethyl)-I-piperazinepropane sulfonic acid], the pKa (no step given) is on record as 8.00.

As to `CN(C)C` [Trimethylamine], the pKa (no step given) is recorded as 9.74.

As for `CN` [Methylamine], the pKa (no step given) is recorded as 10.64.

Regarding `O=S(=O)(O)CCCNC(CO)(CO)CO` [TAPS, N-Tris(hydroxymethyl)methyl-2-aminopropane suifonic acid], the pKa (pKa2) was 8.40.

For `O=S(=O)(O)CCCNC1CCCCC1` [CAPS, 3-Cyclohexylamino-I-propanesulfonic acid], where the note is “pKa2”, the pKa was 10.40.

Take `C=C(CC(=O)O)C(=O)O` [Itaconic]: the pKa runs as follows: (pKa1) 3.84; (pKa2) 5.55.

For `O=C(O)c1cccc(C(=O)O)c1C(=O)O` [Benzene-1,2,3-tricarboxylic (hemimellitic)], the pKa runs as follows: (pKa1) 2.98; (pKa2) 4.25; (pKa3) 5.87.

On to `COc1ccccc1OCCNCC(O)COc1cccc2[nH]c3ccccc3c12` (racemic) [Carvedilol], for which, in data set [1] (administration of an IR formulation), the “alpha-mediated vasodilatory effects (decreased peripheral resistance and blood pressure) evident within” value is at most 30 min. Besides, in data set [1] (in vivo), the binding to plasma result is on record as “highly bound” and the “dose excreted unchanged in the urine” value is “less than 2%”. Besides, the dose linearity range in data set [1] (literature) is 6.25 to 50 mg. Further, the “time to peak plasma concentrations” value in data set [1] (oral administration) is on record as “one to two”. For the same molecule, the “absorption in the large intestine, share of the total absorption” value in data set [1] (timed-release capsules, study by Nolte et al) is listed as “approximately 10%”.

Take `CC(CC(=O)O)(CC(=O)O)C(=O)O` [2-Methylpropane-1,2,3-triscarboxylic]: the pKa is listed as 5.02 (pKa2) and 7.20 (pKa3).

Take `O=C(O)CC(O)C(=O)O` (stereo not drawn) [Malic]: the pKa (pKa1) is reported as 3.40 and the pKa (pKa2) is given as 5.05.

As for `O=C(O)c1ccccc1C(=O)O` [Phthalic], the pKa (no step given) is 2.90.

For the molecule `O=C(O)c1cc(C(=O)O)c(C(=O)O)cc1C(=O)O` [Benzene-1,2,4,5-tetracarboxylic (pyromellitic)], the pKa is listed as 2.43 (pKa1), 3.13 (pKa2), 4.44 (pKa3) and 5.61 (pKa4).

For `O=C(O)CC1(CC(=O)O)CCCC1` [I,I-Cyclopentanediacetic, I,I-Cyclopentanediacetic (3,3 tetramethylene glutaric acid)], the pKa is recorded as 3.82 (pKa1) and 6.70 (pKa2).

For `O=C(O)C(O)c1ccccc1` (stereo not drawn) [Mandelic], for the setting “no step given”, the pKa is recorded as 3.36.

Turning to `O=C(O)c1cc(C(=O)O)c(C(=O)O)c(C(=O)O)c1C(=O)O` [Benzenepentacarboxylic], the pKa is recorded as 2.95 (pKa2), 3.94 (pKa3), 5.07 (pKa4) and 6.25 (pKa5).

As for `O=S(=O)(O)CCN1CCN(CCS(=O)(=O)O)CC1` [PIPES, 1,4-Piperazinebis-(ethanesulfonic acid)], the pKa reads like this: (pKa3) 3.00; (pKa4) 6.8.

As for `O=C(O)CC(C(=O)O)C(CC(=O)O)C(=O)O` (stereo not drawn) [Butane-1,2,3,4-tetracarboxylic], the pKa by setting is: (pKa2) 4.38; (pKa3) 5.45; (pKa4) 6.63.

Take `O=C(O)c1cc(C(=O)O)cc(C(=O)O)c1` [Benzene-1,3,5-tricarboxylic (trimesic)]: the pKa is 3.16 (pKa1), 3.98 (pKa2) and 4.85 (pKa3).

`COc1cc2c(cc1OC)[C@@]13CCN4CC5=CCO[C@H]6CC(=O)N2[C@H]1[C@H]6[C@H]5C[C@H]43.O.O.O.O` [Brucine tetrahydrate]: the pKa is on record as 2.30 (pKa1) and 7.95 (pKa2).
